Reference: ChEMBL document CHEMBL4261534, “Synthesis, α-glucosidase inhibition and molecular docking studies of novel thiazolidine-2,4-dione or rhodanine derivatives” (Medchemcomm, 2017)

Target: alpha-glucosidase (Saccharomyces cerevisiae)
Assay: Inhibition of alpha-glucosidase (unknown origin) using p-nitrophenyl alpha-D-glucopyranoside as substrate preincubated for 15 mins followed by substrate addition measured after 30 mins by spectrophotometric method

Row | SMILES | IC50
1 | COc1cc(/C=C2\SC(=O)NC2=O)ccc1OCN1C(=O)c2ccccc2C1=O | 35.14 µM
2 | O=C1NC(=O)/C(=C/c2cc([N+](=O)[O-])ccc2OCN2C(=O)c3ccccc3C2=O)S1 | 50.45 µM
3 | O=C1NC(=O)/C(=C/c2ccc(OCN3C(=O)c4ccccc4C3=O)c([N+](=O)[O-])c2)S1 | 22.48 µM
4 | O=C1NC(=S)S/C1=C\c1cc([N+](=O)[O-])ccc1OCN1C(=O)c2ccccc2C1=O | 35.79 µM
5 | O=C1NC(=O)/C(=C/c2ccccc2OCN2C(=O)c3ccccc3C2=O)S1 | > 100 µM
6 | COc1cc(/C=C2\SC(=S)NC2=O)ccc1OCN1C(=O)c2ccccc2C1=O | 16.11 µM
7 | CCOc1cc(/C=C2\SC(=S)NC2=O)ccc1OCN1C(=O)c2ccccc2C1=O | 7.72 µM
8 | COc1cc(/C=C2\SC(=S)NC2=O)cc(OC)c1OCN1C(=O)c2ccccc2C1=O | 39.81 µM
9 | O=C1NC(=O)/C(=C/c2ccc(OCN3C(=O)c4ccccc4C3=O)cc2)S1 | 25.6 µM
10 | O=C1NC(=S)S/C1=C\c1ccccc1OCN1C(=O)c2ccccc2C1=O | > 100 µM
11 | COc1cc(/C=C2\SC(=O)NC2=O)cc(OC)c1OCN1C(=O)c2ccccc2C1=O | > 100 µM
12 | O=C1NC(=S)S/C1=C\c1cc(Cl)ccc1OCN1C(=O)c2ccccc2C1=O | 34.82 µM
13 | O=C1NC(=O)/C(=C/c2cccc(OCN3C(=O)c4ccccc4C3=O)c2)S1 | > 100 µM
14 | CCOc1cc(/C=C2\SC(=O)NC2=O)ccc1OCN1C(=O)c2ccccc2C1=O | 29.26 µM
15 | O=C1NC(=O)/C(=C/c2cc(Cl)ccc2OCN2C(=O)c3ccccc3C2=O)S1 | > 100 µM
16 | O=C1NC(=S)S/C1=C\c1cccc(OCN2C(=O)c3ccccc3C2=O)c1 | 33.98 µM
17 | O=C1NC(=S)S/C1=C\c1ccc(OCN2C(=O)c3ccccc3C2=O)c(Cl)c1 | 5.44 µM
18 | O=C1NC(=O)/C(=C/c2ccc(OCN3C(=O)c4ccccc4C3=O)c(Cl)c2)S1 | 20.95 µM
19 | O=C1NC(=S)S/C1=C\c1ccc(OCN2C(=O)c3ccccc3C2=O)cc1 | 7.91 µM
20 | COc1cccc(/C=C2\SC(=S)NC2=O)c1OCN1C(=O)c2ccccc2C1=O | > 100 µM
21 | O=C1NC(=S)S/C1=C\c1ccc(OCN2C(=O)c3ccccc3C2=O)c([N+](=O)[O-])c1 | 6.59 µM
22 | COc1cccc(/C=C2\SC(=O)NC2=O)c1OCN1C(=O)c2ccccc2C1=O | > 100 µM
